These results are taken from ChEMBL document CHEMBL4706771, “Discovery of Orally Bioavailable Ligand Efficient Quinazolindiones as Potent and Selective Tankyrases Inhibitors” (ACS Med Chem Lett, 2021).

Series [1] in a line: Dose normalised AUC in C57 mouse at 3 mg/kg, po. Particulars: in vivo. It is filed as ADME, organism-based.
Series [2] deals with T1, Cytochrome P450 1A2 (Homo sapiens, UniProt P05177).
T1 sequence (P05177 whole entry): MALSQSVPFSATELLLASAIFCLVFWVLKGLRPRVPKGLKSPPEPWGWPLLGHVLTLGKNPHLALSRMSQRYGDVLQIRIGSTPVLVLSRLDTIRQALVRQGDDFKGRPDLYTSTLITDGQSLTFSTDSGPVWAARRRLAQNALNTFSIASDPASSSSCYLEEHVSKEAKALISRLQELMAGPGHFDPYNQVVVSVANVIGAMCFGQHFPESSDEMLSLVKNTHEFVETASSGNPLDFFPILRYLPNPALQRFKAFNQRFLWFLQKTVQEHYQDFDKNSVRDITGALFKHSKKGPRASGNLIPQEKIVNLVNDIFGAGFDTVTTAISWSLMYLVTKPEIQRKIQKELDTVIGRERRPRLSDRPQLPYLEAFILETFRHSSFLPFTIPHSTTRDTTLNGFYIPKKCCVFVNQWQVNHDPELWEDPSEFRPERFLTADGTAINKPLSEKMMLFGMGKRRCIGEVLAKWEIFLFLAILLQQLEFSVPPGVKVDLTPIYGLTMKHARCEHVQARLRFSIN
Description: Inhibition of CYP1A2 (unknown origin). It is filed as ADME.

A short description of series [3]: Toxicity in BALB/c mouse xenografted with human NCI-H292 cells assessed as tolerability at 10 to 30 mg/kg, po for 14 days and measured on day 14. It is filed as organism-based. Particulars: in vivo, 336 h, dose 10-30 mg/kg, time 14 day.
A short description of series [4]: Toxicity in Wistar Han rat assessed as tolerability at >= 100 mg/kg, po administered for 7 days and measured on day 7. The format is organism-based. Particulars: in vivo, 168 h, time 7 day.
The nature of series [5]: Dose normalised AUC in Beagle dog at 2 mg/kg, po. The format is ADME, organism-based, Canis lupus familiaris. Particulars: in vivo.
For series [6], the target named is Cytochrome P450 2C9 (Homo sapiens, UniProt P11712). In words: Inhibition of CYP2C9 (unknown origin). It is filed as ADME.
Chain of Cytochrome P450 2C9 (P11712 whole entry): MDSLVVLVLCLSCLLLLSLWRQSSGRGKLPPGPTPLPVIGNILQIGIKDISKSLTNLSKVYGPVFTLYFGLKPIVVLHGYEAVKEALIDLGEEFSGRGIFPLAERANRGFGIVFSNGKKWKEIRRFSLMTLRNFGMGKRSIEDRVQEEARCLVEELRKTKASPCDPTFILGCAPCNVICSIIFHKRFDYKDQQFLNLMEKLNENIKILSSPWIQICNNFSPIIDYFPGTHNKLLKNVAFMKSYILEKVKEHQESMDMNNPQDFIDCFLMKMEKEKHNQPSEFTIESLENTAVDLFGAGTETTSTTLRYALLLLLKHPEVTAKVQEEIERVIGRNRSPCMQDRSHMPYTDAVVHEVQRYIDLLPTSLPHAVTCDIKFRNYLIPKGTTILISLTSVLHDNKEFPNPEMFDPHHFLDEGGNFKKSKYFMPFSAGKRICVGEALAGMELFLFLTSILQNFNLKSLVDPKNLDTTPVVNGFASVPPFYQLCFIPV
Series [7] has as its system NCI-H292. Description: Antitumor activity against human NCI-H292 cells xenografted in BALB/c mouse assessed as reduction in tumor growth at 3 mg/kg, po administered for 14 days and measured on day 14. It is filed as functional, organism-based. To be noted: time 14.0 day.
Series [8] is described as follows: Clearance in Sprague-Dawley rat at 8.6 mg/kg, po or 0.5 mg/kg, iv. It is filed as ADME, organism-based. Particulars: in vivo.
A short description of series [9]: Mutagenicity in Salmonella typhimurium TA100 by ames test. It is filed as toxicity. To be noted: salmonella enterica subsp. enterica serovar typhimurium.
Series [10] in a line: Oral bioavailability in Beagle dog at 2 mg/kg. It is filed as ADME, organism-based, Canis lupus familiaris. Particulars: in vivo.
Series [11] is described as follows: Dose normalised AUC in Sprague-Dawley rat at 8.6 mg/kg, po. It is filed as ADME, organism-based. To be noted: in vivo.
The nature of series [12]: Volume of distribution in C57 mouse at 3 mg/kg, po or 1 mg/kg, iv. To be noted: in vivo. It is filed as ADME, organism-based.

The source made the active and inactive calls. The rule behind the calls is not given here. Some results are limits rather than exact numbers.

With `Cc1cccc2c1c(=O)n(C[C@H]1CC[C@H](C(=O)O)CC1)c(=O)n2Cc1cccc(C(F)(F)F)c1C#N`, the AUC/dose came out at 5831 ng·h/mL in series [1], 2937 ng·h/mL in [5] and 6651 ng·h/mL in [11]. Also, the IC50 in [2] was greater than 100 µM; in series [6], 84 µM. In addition, the Activity result in series [3] is “Non-Toxic”; in [4], “Toxic”; in series [9] it was “Non-Toxic”. Moreover, the result in [7] was Active. For the same compound, the clearance in [8] came out at 3.48 mL/min/kg. The compound further showed a bioavailability in series [10] of 52.2%. The Vd in series [12] was 1.34 L/kg.
